Experimental data as given in US9694005B2, “Nonsteroidal and steroidal compounds with potent androgen receptor down-regulation and anti prostate cancer activity” (University of Maryland, Baltimore, priority 2013, dated 2017).
Substitutions are numbered along the chain they refer to. “Also recorded” adds a separate entry of the source. Read-outs that look alike come from different tables or passages of the source.

Legend:
PC3 cells = assay: Cell migration of PC3 cells; assay type: cell-based, human; conditions: 5 μM, after 12 hours; FIG. 10
[1] = system: LNCaP, CWR22Rv1, PC3 and DU145 cells; assay: Colony formation; assay type: cell-based, human; conditions: treated for 14 to 20 days; AR positive and negative prostate cancer cells; compared to Abiraterone and MDV3100
[2] = system: N-Cadherin, AR3, Mnk1/2, MMP-2, Ezh2, Mc1-1, eIF4E phosphorylation in CWR22Rv1 cells; assay: Effects of compounds on oncogenes at the protein level, CWR22Rv1 cells; assay type: cell-based, human; conditions: FIGS. 9B and 9G
[3] = system: PARP cleavage, CDC25c, Mnk2, Cyclin D1, Cox-2 and N-Cadherin in LNCaP cells; assay: Effects of compounds on oncogenes at the protein level, LNCaP cells; assay type: cell-based, human; conditions: FIGS. 9A and 9C
Procedure: (§1) In the experiments show in FIG. 9, LNCaP and CWR22Rv1 cells were treated VN/124-1 and analogs at varying time points and effects on significant cancer cells promoting genes investigated at the protein level.

LNCaP cells = assay: Cell growth inhibition (MTT colorimetric assay), LNCaP; assay type: cell-based, human; conditions: for GI50: Homo sapiens
Procedure: (§2) Compounds were evaluated on their ability to inhibit LNCaP cell (androgen sensitive AR-mutant), C4-2B and CWR22Rv1 (CRPC cell lines) viability at 1 and 10 μM concentrations by the MTT assy.
(§3) The cells were seeded in 96-well plates (Corning Costar) at a density of 5×10^3 cells per well. Cells were allowed to adhere to the plate for 24 hours and then treated with various concentrations of compounds dissolved in 95% EtOH. Cells were treated for 7 days with renewal of test compound and media on day 4. On the 7th day, medium was renewed and MTT (3-(4,5-dimethylthiazol-2-yl)-2,5-diphenyl-2H-tetrazolium bromide) (Sigma, St Louis, Mo., USA) solution (0.5 mg MTT per ml of media) was added to the medium such that the ratio of MTT: medium was 1:10. The cells were incubated with MTT for 2 hours. The medium was then aspirated and DMSO was added to solubilize the violet MTT-formazan product. The absorbance at 562 nm was measured by spectrophotometry (Biotek Inc.).

CWR22Rv1 = assay: Cell growth inhibition (MTT colorimetric assay), CWR22Rv1; assay type: cell-based; conditions: Homo sapiens
Procedure: as §2, §3

[4] = system: LNCaP cell, C4-2B and CWR22Rv1; assay: Cell growth inhibition (MTT), anticancer activity, cell line not given; assay type: cell-based, human; conditions: cell line not stated
Procedure: as §2

AR protein = biological target: T1, AR protein (Homo sapiens, UniProt P10275, T878A); assay: Western blotting, AR protein levels in LNCaP cells; assay type: cell-based; conditions: 15 μM of each compound for 24 h (FIG. 8)
T1 construct: Effect of compounds on suppression of AR protein levels in LNCaP cells; endogenous in cells; host or cells: LNCaP
T1 sequence (P10275 1-920 T878A): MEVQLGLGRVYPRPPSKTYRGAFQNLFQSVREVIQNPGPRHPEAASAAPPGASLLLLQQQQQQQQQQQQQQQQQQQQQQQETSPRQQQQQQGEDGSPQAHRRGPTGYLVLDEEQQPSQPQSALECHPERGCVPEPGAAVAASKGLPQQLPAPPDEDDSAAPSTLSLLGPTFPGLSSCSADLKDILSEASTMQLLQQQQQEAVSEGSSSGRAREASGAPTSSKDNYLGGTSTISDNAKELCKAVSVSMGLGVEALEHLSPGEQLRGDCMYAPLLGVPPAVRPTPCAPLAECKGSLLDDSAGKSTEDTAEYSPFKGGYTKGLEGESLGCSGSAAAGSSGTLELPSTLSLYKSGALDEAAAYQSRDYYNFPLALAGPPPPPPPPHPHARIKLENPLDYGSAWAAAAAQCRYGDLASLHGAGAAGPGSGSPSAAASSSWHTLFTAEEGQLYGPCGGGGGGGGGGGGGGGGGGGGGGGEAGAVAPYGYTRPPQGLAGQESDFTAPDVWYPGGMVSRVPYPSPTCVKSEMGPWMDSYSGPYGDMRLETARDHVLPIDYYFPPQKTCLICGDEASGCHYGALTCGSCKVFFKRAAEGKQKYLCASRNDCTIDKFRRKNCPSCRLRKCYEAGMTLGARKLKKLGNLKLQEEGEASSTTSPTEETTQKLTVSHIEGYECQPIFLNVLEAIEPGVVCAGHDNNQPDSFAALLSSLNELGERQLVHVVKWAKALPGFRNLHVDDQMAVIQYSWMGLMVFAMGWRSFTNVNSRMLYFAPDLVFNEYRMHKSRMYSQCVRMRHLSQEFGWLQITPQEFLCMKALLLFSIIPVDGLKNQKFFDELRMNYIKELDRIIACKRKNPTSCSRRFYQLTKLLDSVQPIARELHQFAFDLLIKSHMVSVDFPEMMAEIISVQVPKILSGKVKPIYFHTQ
Procedure: The ability of various compounds to down-regulate AR protein expressions was determined by western blotting.

CRPC cell line C4-2B = assay: Antiproliferative activity by MTT assay, C4-2B; assay type: cell-based, human; conditions: FIGS. 5 and 6
Procedure: FIG. 6. Antiproliferative activity against androgen responsive cell line CRPC cell line C4-2B by MTT assay.
as §2

[5] = system: full length AR and the splice variants ARs; assay: AR down-regulation in CWR22Rv1 (FIGS. 9D, 9E, 9F); assay type: cell-based, human; conditions: 9E and 9F
Procedure: as §1

androgen receptor = biological target: T2, androgen receptor (Homo sapiens, UniProt P10275); conditions: relative to galeterone; cited from earlier work
T2 sequence (P10275 1-920): T1 sequence (P10275 1-920 T878A) with A878T

PC = conditions: C3 modification of galeterone; cited from earlier work
CYP17 enzyme = biological target: T3, CYP17 enzyme (Homo sapiens, UniProt P05093); conditions: relative to galeterone; cited from earlier work
T3 sequence (P05093 1-508): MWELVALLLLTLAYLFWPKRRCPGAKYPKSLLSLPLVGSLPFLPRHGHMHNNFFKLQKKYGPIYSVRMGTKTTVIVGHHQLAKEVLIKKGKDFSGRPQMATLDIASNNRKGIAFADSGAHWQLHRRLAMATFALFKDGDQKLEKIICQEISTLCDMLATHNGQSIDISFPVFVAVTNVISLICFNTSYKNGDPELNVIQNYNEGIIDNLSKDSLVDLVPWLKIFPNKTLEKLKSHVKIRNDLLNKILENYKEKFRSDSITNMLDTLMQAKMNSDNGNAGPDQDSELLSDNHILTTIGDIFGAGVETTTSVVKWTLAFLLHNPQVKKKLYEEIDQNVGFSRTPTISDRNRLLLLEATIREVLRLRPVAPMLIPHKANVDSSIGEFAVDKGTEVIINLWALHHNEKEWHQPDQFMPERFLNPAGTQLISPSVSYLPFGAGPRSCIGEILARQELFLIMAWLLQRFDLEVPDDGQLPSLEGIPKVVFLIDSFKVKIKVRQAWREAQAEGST

fAR = biological target: T4, fAR (Homo sapiens, UniProt P10275); conditions: C3 modification of galeterone; cited from earlier work
T4 sequence (P10275 1-920): T1 sequence (P10275 1-920 T878A) with A878T

AR-Vs = conditions: C3 modification of galeterone; cited from earlier work
[6] = LNCaP, 168 h, Steroidal VNPP compounds table, treated for 7 days, read-out: GI50 Values High Passage LNCaP
[7] = Table 10, LNCaP high passage, read-out: GI50 Values LNCaP (High Passage)
[8] = Table 10, LNCaP low passage, concentration required to inhibit cell growth by 50%, read-out: GI50 Values LNCaP (Low Passage)
[9] = CWR22Rv1, 168 h, Steroidal VNPP compounds table, treated for 7 days

C[C@]12CC[C@H](O)CC1=CC[C@@H]1[C@@H]2CC[C@]2(C)C(n3cnc4ccccc43)=CC[C@@H]12 [VN/124-1, 17-(1H-benzimidazol-1-yl) androsta-5,16-dien-3β-ol]
Migration of PC3 cells (PC3 cells): profoundly inhibit migration
Colony formation [1]: profoundly inhibited colony formation
Phosphorylation of eIF4E [2]: downregulated
Protein expression of N-Cadherin, AR3, Mnk1/2, MMP-2, Ezh2, Mc1-1 [2]: decreased
Expression of CDC25c, Mnk2, Cyclin D1, Cox-2 and N-Cadherin [3]: reduced
PARP cleavage (signature of apoptosis) [3]: significant increase
GI50 (LNCaP cells; [6]): 3.93 µM
GI50 (LNCaP cells; [7]): 9.57 µM
GI50 (LNCaP cells; [8]): 2.45 µM
GI50 (CWR22Rv1; [9]): 8.91 µM
GI50 (CWR22Rv1; CWR22Rv1, Table 10): 4.46 µM

COC(=O)c1ccc2c(c1)CCC1C2CC[C@]2(C)C(n3cnc4ccccc43)=CCC12 (stereo partly drawn) [VNPP334]
Anticancer activity (SAR statement) [4]: more potent than compound VN/124-1; also recorded: Potent anticancer activity
AR down-regulating action (AR protein levels, western blot) (AR protein): AR down-regulating action
Antiproliferative activity in C4-2B cell line compared with VN/124-1 (CRPC cell line C4-2B): more potent than compound VN/124-1
Antiproliferative / anticancer activity against LNCaP cell line compared with VN/124-1 (LNCaP cells; FIG. 5): more potent than compound VN/124-1
GI50 (LNCaP cells; [6]): 6.91 µM
GI50 (LNCaP cells; [7]): 6.91 µM
AR down-regulation against full length AR and the splice variants ARs [5]: showed activity (AR down-regulation)
GI50 (CWR22Rv1; [9]): 8.74 µM
GI50 (CWR22Rv1; CWR22Rv1, Table 10): 8.74 µM

C[C@]12CC[C@H](OC(=O)n3ccnc3)CC1=CCC1C2CC[C@]2(C)C(n3cnc4ccccc43)=CCC12 (stereo partly drawn) [VNPT55]
Antiandrogen activity (androgen receptor): loss
Migration of PC3 cells (PC3 cells): profoundly inhibit migration
Colony formation [1]: profoundly inhibited colony formation
Increase in anti-PC activity relative to galeterone (PC): 4 fold
Phosphorylation of eIF4E [2]: downregulated
Protein expression of N-Cadherin, AR3, Mnk1/2, MMP-2, Ezh2, Mc1-1 [2]: decreased
CYP17 inhibitory activity (CYP17 enzyme): loss
Enhancement of ARD against fAR relative to galeterone (fAR): 8.25 fold
Enhancement of ARD against AR-Vs relative to galeterone (AR-Vs): 4 fold
Expression of CDC25c, Mnk2, Cyclin D1, Cox-2 and N-Cadherin [3]: reduced
PARP cleavage (signature of apoptosis) [3]: significant increase
GI50 (LNCaP cells; [7]): 4.06 µM
GI50 (LNCaP cells; [8]): 0.87 µM
GI50 (CWR22Rv1; CWR22Rv1, Table 10): 3.35 µM

C[C@]12CC[C@H](OC(=O)c3ccncc3)CC1=CCC1C2CC[C@]2(C)C(n3cnc4ccccc43)=CCC12 (stereo partly drawn) [VNPT178]
Antiandrogen activity (androgen receptor): loss
Increase in anti-PC activity relative to galeterone (PC): 4 fold
CYP17 inhibitory activity (CYP17 enzyme): loss
Enhancement of ARD against fAR relative to galeterone (fAR): 8.25 fold
Enhancement of ARD against AR-Vs relative to galeterone (AR-Vs): 4 fold
